Measured values from patent US5010005A, “Bio-oxidation of high alcohols in non-aqueous reaction media” (priority 1989, dated 1991).

Tests used:
[1] = target: T1, purified alcohol oxidase from P. pastoris (Komagataella phaffii, UniProt P04842); details: Patel et al; cited from earlier work
T1 sequence (P04842 2-663 limits assumed): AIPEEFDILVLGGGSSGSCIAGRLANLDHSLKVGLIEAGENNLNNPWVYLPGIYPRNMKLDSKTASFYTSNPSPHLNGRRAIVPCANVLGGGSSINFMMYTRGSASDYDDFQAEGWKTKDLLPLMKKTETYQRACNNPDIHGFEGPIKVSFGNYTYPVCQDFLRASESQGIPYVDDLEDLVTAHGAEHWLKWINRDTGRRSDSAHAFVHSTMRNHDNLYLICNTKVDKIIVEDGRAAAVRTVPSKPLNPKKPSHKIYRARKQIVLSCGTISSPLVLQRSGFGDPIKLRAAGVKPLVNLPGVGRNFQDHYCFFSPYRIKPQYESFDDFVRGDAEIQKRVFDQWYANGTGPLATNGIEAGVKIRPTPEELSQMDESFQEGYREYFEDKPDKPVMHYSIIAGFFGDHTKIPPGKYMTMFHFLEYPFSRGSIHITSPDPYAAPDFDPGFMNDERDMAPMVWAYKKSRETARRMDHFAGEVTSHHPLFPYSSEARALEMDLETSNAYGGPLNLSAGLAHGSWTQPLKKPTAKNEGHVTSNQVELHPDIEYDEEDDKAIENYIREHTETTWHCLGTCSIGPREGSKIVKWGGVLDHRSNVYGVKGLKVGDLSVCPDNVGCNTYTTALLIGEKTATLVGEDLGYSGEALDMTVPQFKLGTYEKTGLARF

[2] = tested on: whole cells of Pichia pastoris; assay: Conversion of alcohols by whole cells of Pichia pastoris in aqueous reaction media; type: cell-based; details: for Oxidation by methanol-induced alcohol oxidase from P. pastoris: aqueous reaction media
Description: Pichia pastoris was obtained from the American Type Culture Collection, Rockville, Maryland, U.S.A. (ATCC 28485). The growth and maintenance medium consisted of: KH2 PO4 2.6 g/L; K2 HPO4 0.3 g/L; (NH4)2 SO4 1.5 g/L; MgSO4.7 ·H2 O 0.3 g/L; Difco yeast extract 1.9 g/L; FeSO4 ·7H2 O 1 mg/L; CuSO4 ·5H2 O 5 μg/L; H3 BO3 10 μg/L; MnSO4 ·H2 O 10 μg/L; ZnSO4 ·7H2 O 70 μg/L: NaMoO4 ·2H2 O 10 μg/L. After the medium was autoclaved and cooled, methanol (10 g/L) and a vitamin solution (J.P. van der Walt and A.E. van Kerken, Antonie van Leeuwenkoek 27: 81-90, 1961) (2 mL) were added. Growth of the organism was carried out in Erlenmeyer shake flasks at 30° C. on a reciprocal shaker (200 rpm). After 72 hrs growth, biomass was harvested by centrifugation (4000 g, 5 min) washed with 0.1 M phosphate buffer pH 8, and resuspended in 0.5 M Tris buffer (pH 8).
Unless otherwise stated, the reaction conditions for whole cell systems in aqueous solution (0.5M Tris pH 8) were as follows: 25 ml of the biomass suspension was dispensed into 125 mL serum vials and the substrate was added to the concentration listed in Table 1. The final biomass concentration was 5 g/L. The vials were flushed with oxygen, capped and sealed to prevent loss of reactants or products from the system. The vials were pressurized with oxygen (15 psig) and shaken (200 rpm) at 30° C. during the reaction. A sample was withdrawn following the reaction time listed in Table 1 and centrifuged (15000 g, 1 min) to remove biomass and stop the reaction. The supernatant liquid was diluted 1:1 with internal standard for gas chromatography. In some cases, a portion of the sample was extracted with 9 volumes of warm (50° C.) water, to solubilize insoluble separated product, mixed thoroughly by vortexing, and then diluted 1:1 with internal standard before assaying by gas chromatography. In all experiments the vials were regularly repressurized with oxygen throughout the reaction period.
The substrates and products were assayed using a Hewlett-Packard 5790A gas chromatograph equipped with a Chromasorb 101 packed column. The carrier gas was helium and the column was run isothermally at 220° C. For aqueous reaction systems the internal standard was isopropyl alcohol (20 g/L). In non-aqueous systems octanol (20 g/L) was dissolved in the appropriate solvent and used as internal standard.

[3] = target: T2, alcohol oxidase (Komagataella phaffii, UniProt P04842); assay: Conversion of benzyl alcohol to benzaldehyde by purified alcohol oxidase in aqueous two phase systems; type: biochemical, Pichia pastoris; details: for Reaction Rate: benzyl alcohol 20 g/L
T2 construct: purchased Provesta Corp. (Bartlesville, Oklahoma)
T2 sequence (P04842 2-663 limits assumed): T1 sequence (P04842 2-663 limits assumed)
Description: To determine reaction rates, benzyl alcohol was presolubilized in the solvent of interest to a final concentration of 20 g/L unless otherwise specified. Alcohol oxidase and catalase were premixed in an activity ratio of 1300 U catalase activity per unit of alcohol oxidase activity. In some cases the enzyme mixture was diluted with 0.1 M phosphate buffer (pH 8) to determine the effect of changes in phase volume ratio. The enzyme mixture was then added to the solvent-substrate reaction fluid in a 125 mL serum vial. Reaction conditions were otherwise identical to those described above.
The purified alcohol oxidase was obtained from Provesta Corp. (Bartlesville, Oklahoma) and consisted of a concentrated (35 g/L) protein solution with a specific activity of 14.7 International Enzyme Units (IEU) per milligram of protein. One IEU is defined as the amount of enzyme which will oxidize one micomole of ethanol to acetaldehyde per minute at pH 7.5 at 25° C. The enzyme was stored frozen (-20° C.) until used. Beef liver catalase was obtained from Boehringer Mannheim Inc. as a 20 g/L suspension with a specific activity of 65000 U/mg. It was stored at 4° C.
Benzyl alcohol to benzaldehyde conversion was described in part a) except the percent aqueous phase was varied between 1and 5%.

[4] = tested on: alkane-induced alcohol oxidase; details: Kemp et al; cited from earlier work
[5] = type: physicochemical
Description: The partitioning of benzyl alcohol and benzaldehyde between 0.1 M phosphate buffer and each solvent used were measured as follows: benzyl alcohol (10 g/L) and benzaldehyde (10 g/L) were dissolved in each of the solvents of interest. Ten millilitres of each solvent were then dispensed into a test tube containing 10 ml of 0.1 M phosphate buffer (pH 8). The tubes were capped, vortexed, and the mixture was allowed to equilibrate for 1 hr at 30° C. Both phases were then assayed for benzaldehyde and benzyl alcohol as described above. Partition coefficients were expressed as the ratio of the concentration of the solute of interest in the aqueous phase: the concentration of the same compound in the organic phase.
The partition coefficients were determined as in Example 2 but expressed as solute (g/L) in organic phase/solute (g/L) in aqueous phase (see Table 4).

[6] = tested on: P. pastoris; assay: Bio-oxidation of hexanol to hexanal by P. pastoris in two-phase aqueous (5% v/v)/organic systems; type: cell-based, Pichia pastoris; details: for Hexanal produced: aqueous phase 5% v/v, 24 h incubation
[7] = tested on: whole cells of Pichia pastoris; assay: Conversion of higher alcohols by whole cells of Pichia pastoris in two-phase (hexane/water) reaction system; type: cell-based; details: alcohol 30 g/L
Description: Growth of the organism was carried out in Erlenmeyer shake flasks at 30° C. on a reciprocal shaker (200 rpm). After 72 hrs growth, biomass was harvested by centrifugation (4000 g, 5 min) washed with 0.1 M phosphate buffer pH 8, and resuspended in 0.5 M Tris buffer (pH 8).
The method of conversion of higher alcohols using whole cells in a two-phase reaction system was as follows. One gram of Pichia pastoris cell paste (pellet resulting from a 10 minute, 9154 g centrifugation) was placed in a 125 ml serum vial and dispersed in 2 ml of H2 O (aqueous phase).
Then 48 ml of hexane containing the substrate (concentration in Table 1) were added to form the organic phase. The reaction was conducted as described above. Samples from the organic phase were withdrawn at the indicated times (Table 1) and the concentration of aldehyde product determined by gas chromatography.
The carrier gas was helium and the column was run isothermally at 220° C. For aqueous reaction systems the internal standard was isopropyl alcohol (20 g/L). In non-aqueous systems octanol (20 g/L) was dissolved in the appropriate solvent and used as internal standard.

In the case of `CC(N)CO` (centres unmarked) [2-amino-1-propanol], the “Oxidation by purified alcohol oxidase” value [1] is given as “unable to oxidize”.
For `NCCO` [2-amino-ethanol], the “Oxidation by purified alcohol oxidase” value [1] is given as “unable to oxidize”.
With `OCc1ccccc1` [benzyl alcohol] the inhibition at 20000 µg/mL ([2]; Komagataella pastoris, read-out: Reduction of reaction rate by substrate inhibition) was about 60%, the “Substrate concentration at which strong inhibition of the reaction is observed” value ([2]; whole cells in aqueous reaction fluid) was “greater than 20 g/L” and the “Cumulative benzaldehyde production Concn.” value ([3]; enzyme 1.0 U/mL, time 2.0 h) was 2.1 g/L. The “Cumulative benzaldehyde production Concn.” value ([3]; enzyme 1.0 U/mL, time 4.0 h) was 2.8 g/L, the “Cumulative benzaldehyde production Concn.” value ([3]; enzyme 1.0 U/mL, time 8.0 h) was 17 g/L and the “Cumulative benzaldehyde production Concn.” value ([3]; enzyme 2.5 U/mL, time 2.0 h) was 5.1 g/L. For the same compound, the “Cumulative benzaldehyde production Concn.” value ([3]; enzyme 2.5 U/mL, time 4.0 h) was 6.3 g/L, the “Cumulative benzaldehyde production Concn.” value ([3]; enzyme 5.0 U/mL, time 2.0 h) was 9.9 g/L and the “Cumulative benzaldehyde production Concn.” value ([3]; enzyme 5.0 U/mL, time 4.0 h) was 13 g/L. For the same compound, the “Cumulative benzaldehyde production Concn.” value ([3]; enzyme 7.5 U/mL, time 2.0 h) was 13 g/L, the “Cumulative benzaldehyde production Concn.” value ([3]; enzyme 7.5 U/mL, time 4.0 h) was 19 g/L and the “Cumulative benzaldehyde production Concn.” value ([3]; enzyme 10 U/mL, time 2.0 h) was 15 g/L. For the same compound, the “Cumulative benzaldehyde production Concn.” value ([3]; enzyme 10 U/mL, time 4.0 h, fed-batch addition of benzyl alcohol) was 22 g/L, the “Cumulative benzaldehyde production Concn.” value ([3]; enzyme 15 U/mL, time 2.0 h) was 17 g/L and the “Cumulative benzaldehyde production Concn.” value ([3]; enzyme 15 U/mL, time 4.0 h, fed-batch addition of benzyl alcohol) was 32 g/L. The “Cumulative benzaldehyde production Concn.” value ([3]; enzyme 15 U/mL, time 8.0 h, fed-batch addition of benzyl alcohol) was 45 g/L, the “Initial rate of benzaldehyde production” value ([3]; enzyme concentration 1.0 U/mL (0.06 g/L)) was 1.4 g/L h and the “Initial rate of benzaldehyde production” value ([3]; enzyme concentration 2.5 U/mL (0.16 g/L)) was 3.4 g/L h. For the same compound, the “Initial rate of benzaldehyde production” value ([3]; enzyme concentration 5.0 U/mL (0.31 g/L)) was 6.3 g/L h, the “Initial rate of benzaldehyde production” value ([3]; enzyme concentration 7.5 U/mL (0.47 g/L)) was 8.6 g/L h and the “Initial rate of benzaldehyde production” value ([3]; enzyme concentration 10 U/mL (0.63 g/L)) was 10.3 g/L h. The “Initial rate of benzaldehyde production” value ([3]; enzyme concentration 15 U/mL (0.94 g/L)) was 11.7 g/L h, the “Relative Reaction Rate” value ([3]; reaction fluid Chloroform) was 0.03 and the “Reaction Rate” value ([3]; reaction fluid Chloroform) was 0.07 g/L h. For the same compound, the “Relative Reaction Rate” value ([3]; reaction fluid Ether) was 0.19, the “Reaction Rate” value ([3]; reaction fluid Ether) was 0.39 g/L h and the “Relative Reaction Rate” value ([3]; reaction fluid Ethylacetate) was 0.04. For the same compound, the “Reaction Rate” value ([3]; reaction fluid Ethylacetate) was 0.09 g/L h, the “Relative Reaction Rate” value ([3]; reaction fluid Hexane) was 1.0 and the “Reaction Rate” value ([3]; reaction fluid Hexane) was 2.08 g/L h. The “Relative Reaction Rate” value ([3]; reaction fluid Toluene) was 0.49, the “Reaction Rate” value ([3]; reaction fluid Toluene) was 1.01 g/L h and the “Substrate concentration up to which optimum reaction rates (85% of Vmax) could be maintained” value ([3]; two phase system, hexane) was “up to 54 g/L”.
In the case of `OC1CCCCC1` [cyclohexanol], the “Oxidation by purified alcohol oxidase” value [1] is given as “unable to oxidize”.
In the case of `CCCCCCCCCCO` [decanol], the “Oxidation by methanol-induced alcohol oxidase from P. pastoris” value (shortened to “Oxidation … from P. pastoris”) [2] is reported as “unable to oxidize”.
For `CCCCCCCCCCCCO` [dodecanol], the “Substrate specificity of alkane-induced alcohol oxidase” value [4] is given as “optimum activity”.
For `CCCCCCCO` [heptanol], the “Oxidation … from P. pastoris” value [2] was “unable to oxidize”.
With `CCCCCC=O` [hexanal] the Partition coefficient [5] was “greater than unity”.
In the case of `CCCCCCO` [hexanol], the “Aldehyde concentration, aqueous” value ([2]; alcohol 30 g/L, reaction time 12 h) is reported as 5.0 g/L, the Hexanal produced ([6]; Chloroform) is reported as 1.0 g/L and the Hexanal produced ([6]; Ether) is reported as 2.7 g/L. For the same compound, the Hexanal produced ([6]; Ethyl acetate) was 2.4 g/L, the Hexanal produced ([6]; Hexane) was 8.7 g/L and the Hexanal produced ([6]; Toluene) was 2.4 g/L. The “Hexanol concentration completely oxidized” value ([6]; water-hexane two-phase system) was “up to 10 g/L”, the “Aldehyde concentration, 2-phase” value ([7]; reaction time 6 h) was 10.6 g/L and the “Aldehyde concentration, 2-phase” value ([7]; reaction time 24 h) was 12.4 g/L.
For `CCCCCCCCCO` [nonanol], the “Oxidation … from P. pastoris” value [2] was “unable to oxidize”.
With `CCCCCCCCO` [octanol] the “Oxidation … from P. pastoris” value [2] was “unable to oxidize”.
In the case of `CC(C)(C)O` [tert butanol], the “Oxidation by purified alcohol oxidase” value [1] is listed as “unable to oxidize”.
For `CCCCCCCCCCCO` [undecanol], the “Oxidation … from P. pastoris” value [2] was “unable to oxidize”.
